Literature values as cited in patent US20250339472A1 (priority 2024, published 2025).
Read-outs that look alike come from different tables or passages of the source.

Key:
[1] = dog, in vivo
acetylcholinesterase = acetylcholinesterase (Homo sapiens, UniProt P22303)
acetylcholinesterase, sequence (P22303 32-614, species assumed): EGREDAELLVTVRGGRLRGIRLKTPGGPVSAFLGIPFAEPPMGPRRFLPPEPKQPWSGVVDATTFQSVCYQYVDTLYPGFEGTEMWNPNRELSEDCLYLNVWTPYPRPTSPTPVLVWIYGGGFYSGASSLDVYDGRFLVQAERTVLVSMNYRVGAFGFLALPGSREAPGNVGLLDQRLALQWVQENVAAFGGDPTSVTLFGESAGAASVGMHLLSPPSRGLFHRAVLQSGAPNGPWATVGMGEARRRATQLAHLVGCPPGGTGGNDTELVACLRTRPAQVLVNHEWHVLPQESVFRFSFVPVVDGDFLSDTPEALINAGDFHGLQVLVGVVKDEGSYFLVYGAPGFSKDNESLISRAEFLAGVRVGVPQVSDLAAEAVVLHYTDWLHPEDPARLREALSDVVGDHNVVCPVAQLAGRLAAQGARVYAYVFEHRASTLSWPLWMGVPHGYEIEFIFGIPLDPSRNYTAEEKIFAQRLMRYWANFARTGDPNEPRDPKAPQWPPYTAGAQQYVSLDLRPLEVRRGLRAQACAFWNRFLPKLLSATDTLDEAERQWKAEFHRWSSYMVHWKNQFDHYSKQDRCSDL

CC1=C(/C=C/C(C)=C/C=C/C(C)=C/C=C/C=C(C)/C=C/C=C(C)/C=C/C2=C(C)C(=O)[C@@H](O)CC2(C)C)C(C)(C)C[C@H](O)C1=O [Astaxanthin—AstaReal®, Astaxanthin]
efficacy levels [1]: 0.3 mg/kg/day

COc1cc(/C=C/C(=O)CC(=O)/C=C/c2ccc(O)c(OC)c2)ccc1O [Curcumin]
inhibition of acetylcholinesterase activity (acetylcholinesterase): inhibits

Hyaluronic Acid
Safety levels (more than 26 kg body weight): 54 mg of HA per day | Safety levels (up to 26 kg body weight): 27 mg of HA per day
